In publication PMC3532118, “A Novel Muscarinic Antagonist R2HBJJ Inhibits Non-Small Cell Lung Cancer Cell Growth and Arrests the Cell Cycle in G0/G1” (PLoS ONE, 2012):
Where two headings read alike, the source gives them in different places.

Columns and labels:
H1299 cells [1] = assay: Exogenous ACh combined with R2HBJJ, cell viability (SRB)
Description: To determine the correlation between cholinergic signal pathways and R2HBJJ-induced growth inhibition, exogenous AChR agonist ACh was used. The effects of ACh on the growth of H1299 and on R2HBJJ-induced growth inhibition were observed.
Cells were seeded at a density of 6.0×10^3 cells/well in 96-well plates. After overnight incubation, the cells were treated with R2HBJJ (1.6–100 µM) or other antagonists (0.3–100 µM) for 72 h. The inhibitory effects of the antagonists on cell growth were determined using SRB assay, as described previously. For the combination administration, the agonist was added 1 h before R2HBJJ. Each experiment was performed in six replicates and repeated for three times. Cells treated with solvent (DMSO) were used as a control, with viability set at 100%.
(§1) GraphPad Prism 5 software was used for statistical analysis. For competition binding and Guinea-pig tracheal contraction assay, the IC50 values were determined by using the non-linear curve-fitting program. The inhibition constants (Ki values) were calculated by using the Cheng-Prusoff equation. For the experiments of exogenous ACh combined with R2HBJJ, two-way ANOVA was used to compare the interaction of two treatment factors. Post-hoc analyses were performed with Bonferroni's tests for comparisons to controls. For the cell viability assay after siRNA transfection, one-way ANOVA followed by Dunnett's t test was used. A P value of less than 0.05 was considered statistically significant.

H1299 cells [2] = assay: Cell viability assay (SRB), H1299; assay type: cell-based, human
Description: (§3) Cells were seeded at a density of 6.0×10^3 cells/well in 96-well plates. […] The inhibitory effects of the antagonists on cell growth were determined using SRB assay, as described previously [37]. […] Each experiment was performed in six replicates and repeated for three times. Cells treated with solvent (DMSO) were used as a control, with viability set at 100%.

H157 cells = assay: Cell viability assay (SRB), H157; assay type: cell-based; conditions: Homo sapiens, NCI-H157, read-out: 50% growth-inhibitory concentration (GI50), H157, 72 h
Description: as §3

[3] = biological target: T1, human muscarinic receptor M5 (Homo sapiens, UniProt P08912); assay: Radioligand binding assay with [3H]NMS (saturation and competition), M5; conditions: mean ± SD
T1 construct: purchased Perkin Elmer Life and Analytical Sciences
T1 sequence (P08912 whole entry): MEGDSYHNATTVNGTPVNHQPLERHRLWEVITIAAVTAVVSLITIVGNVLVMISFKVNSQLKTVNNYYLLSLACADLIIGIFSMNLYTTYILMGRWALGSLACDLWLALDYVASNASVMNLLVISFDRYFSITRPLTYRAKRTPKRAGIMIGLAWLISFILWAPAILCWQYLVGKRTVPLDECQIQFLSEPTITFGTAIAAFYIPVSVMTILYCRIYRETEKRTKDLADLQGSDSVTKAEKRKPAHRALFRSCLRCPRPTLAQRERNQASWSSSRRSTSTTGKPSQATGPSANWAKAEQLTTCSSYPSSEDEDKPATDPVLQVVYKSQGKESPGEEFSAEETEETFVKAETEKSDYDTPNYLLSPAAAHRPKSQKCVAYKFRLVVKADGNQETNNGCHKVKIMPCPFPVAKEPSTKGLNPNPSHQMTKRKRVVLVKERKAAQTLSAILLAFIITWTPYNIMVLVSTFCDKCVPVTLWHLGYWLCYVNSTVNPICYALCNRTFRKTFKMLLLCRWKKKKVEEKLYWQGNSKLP
Description: (§2) Bound radioligand was separated from free by rapid vacuum filtration through GF/C glass fiber filters (Whatman). The filters were rinsed three times with ice cold PBS. After being dried, the fibers were placed in scintillation vials with 0.5 ml of BetaPlate Scint. Radioactivity trapped on the filters was quantified by a BECKMAN Beta counter. The assay was repeated three times with duplicate samples.
as §1

[4] = biological target: T2, human muscarinic receptor M4 (Homo sapiens, UniProt P08173); assay: biochemical; assay type: binding; conditions: mean ± SD
T2 construct: purchased Perkin Elmer Life and Analytical Sciences
T2 sequence (P08173 whole entry): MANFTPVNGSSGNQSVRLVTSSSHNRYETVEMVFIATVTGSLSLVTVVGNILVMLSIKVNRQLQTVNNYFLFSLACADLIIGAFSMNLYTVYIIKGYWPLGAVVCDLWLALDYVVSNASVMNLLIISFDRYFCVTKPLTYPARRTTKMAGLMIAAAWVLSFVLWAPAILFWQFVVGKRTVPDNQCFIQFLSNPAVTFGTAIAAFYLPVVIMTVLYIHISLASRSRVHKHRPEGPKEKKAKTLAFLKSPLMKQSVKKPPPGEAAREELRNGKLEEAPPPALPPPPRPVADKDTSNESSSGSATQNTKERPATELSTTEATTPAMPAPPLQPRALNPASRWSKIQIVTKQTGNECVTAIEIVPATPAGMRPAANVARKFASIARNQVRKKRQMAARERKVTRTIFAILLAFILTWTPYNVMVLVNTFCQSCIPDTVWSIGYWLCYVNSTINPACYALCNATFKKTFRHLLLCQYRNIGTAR
Description: as §2
as §1, with “used.” for “used. A P value of less than 0.05 was considered statistically significant.”

H460 cells = assay: Cell viability assay (SRB), H460; assay type: cell-based; conditions: Homo sapiens, NCI-H460, read-out: 50% growth-inhibitory concentration (GI50), H460, 72 h
Description: as §3

[5] = test system: cyclin D1-CDK4/6-Rb in H1299 cells; assay: Western blot of cell cycle regulatory proteins and Rb phosphorylation; assay type: cell-based, human
Description: Cell cycle transition from G1 to S is mainly activated by two different kinase composites: cyclin D1/CDK4, 6, and cyclin E, A/CDK2. Rb is the primary substrate of cyclin D-dependent kinase and plays a key role in the network of cell cycle regulation. To investigate the underlying molecular mechanisms of G0/G1 arrest induced by R2HBJJ, the time-dependent changes of several related cell cycle regulatory molecules were evaluated after treatment with 20 µM R2HBJJ in H1299 cells by using western blot analysis. […] The decrease of Rb phosphorylated at the position of Ser^807/811 occurred as early as 3 h after treatment and before apparent cell viability change. […] Further we evaluated the concentration response of Rb phosphorylation reduced after treatment with R2HBJJ for 48 h (Fig. 8B).
Cells were harvested and subjected to lysis in the buffer X (50 mM Tris, 270 mM NaCl, 1% Triton X-100, pH 7.4). Equal amounts of lysates (30 µg) were separated on 10% SDS-PAGE and then transferred to polyvinylidene difluoride membranes (Millipore). Membranes were then blocked with PBS buffer containing 5% low fat milk and 0.1% Tween 20 (PBST) for 1 h at room temperature and then incubated with primary antibodies (1∶1000–2000) overnight at 4°C. After being washed three times with PBST, membranes were incubated with peroxidase-conjugated secondary antibodies (1∶5000) for 1 h at room temperature. The membranes were washed with PBST again and developed with a pro-light HRP chemiluminescence detection kit (TianGen Biotech, China). β-actin was used as a loading control.

[6] = biological target: human muscarinic receptor M1 (Homo sapiens, UniProt P11229); assay: biochemical
Sequence of human muscarinic receptor M1 (P11229 whole entry): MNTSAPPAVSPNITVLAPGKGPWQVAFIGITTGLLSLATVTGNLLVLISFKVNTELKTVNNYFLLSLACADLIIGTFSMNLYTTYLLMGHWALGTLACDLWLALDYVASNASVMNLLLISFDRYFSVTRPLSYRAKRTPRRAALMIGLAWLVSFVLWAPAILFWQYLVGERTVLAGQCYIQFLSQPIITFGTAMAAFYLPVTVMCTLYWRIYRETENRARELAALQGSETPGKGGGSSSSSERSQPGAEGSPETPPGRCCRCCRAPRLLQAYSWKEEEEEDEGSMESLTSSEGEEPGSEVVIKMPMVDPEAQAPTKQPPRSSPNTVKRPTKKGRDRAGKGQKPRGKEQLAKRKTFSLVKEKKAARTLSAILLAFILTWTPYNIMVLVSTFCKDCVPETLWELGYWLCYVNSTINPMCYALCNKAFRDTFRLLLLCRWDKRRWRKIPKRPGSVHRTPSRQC
Description: as §2, §1

[7] = biological target: human muscarinic receptor M3 (Homo sapiens, UniProt P20309); assay: biochemical
Sequence of human muscarinic receptor M3 (P20309 whole entry): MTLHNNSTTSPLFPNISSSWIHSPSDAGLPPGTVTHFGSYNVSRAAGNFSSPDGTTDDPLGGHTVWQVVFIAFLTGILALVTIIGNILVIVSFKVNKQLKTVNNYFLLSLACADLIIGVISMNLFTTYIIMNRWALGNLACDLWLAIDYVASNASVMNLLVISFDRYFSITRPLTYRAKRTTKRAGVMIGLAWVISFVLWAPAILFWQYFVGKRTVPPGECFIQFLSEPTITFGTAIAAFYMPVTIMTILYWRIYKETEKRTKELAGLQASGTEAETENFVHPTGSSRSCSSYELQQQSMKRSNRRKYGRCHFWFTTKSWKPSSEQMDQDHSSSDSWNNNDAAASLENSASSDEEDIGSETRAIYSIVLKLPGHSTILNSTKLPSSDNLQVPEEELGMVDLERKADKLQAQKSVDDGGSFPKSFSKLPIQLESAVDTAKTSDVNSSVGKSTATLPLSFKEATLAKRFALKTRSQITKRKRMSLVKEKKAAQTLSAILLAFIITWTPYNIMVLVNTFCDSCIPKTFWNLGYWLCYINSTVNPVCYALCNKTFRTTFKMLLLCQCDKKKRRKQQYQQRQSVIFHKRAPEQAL
Description: as §2, §1

H1299 cells [8] = assay: Cell cycle analysis by flow cytometry, H1299; assay type: cell-based, human; conditions: H1299, 20 µM
Description: Alterations in cell cycle were determined by using flow cytometric assay. Cells were seeded at a density of 1×10^5 cells/well in six-well plates and synchronized by plating in RPMI-1640 containing 1% FBS for 24 h. For time-dependent response, cells were incubated in 2 ml fresh RPMI-1640 containing 10% FBS with 20 µM R2HBJJ for 24, 48, 72 h. For concentration-dependent response, cells were incubated for 48 h with R2HBJJ at final concentrations of 2.5, 5, 10, 15, 20 µM in 2 ml fresh RPMI-1640 containing 10% FBS. Fresh media added in the control well simultaneously. After treatment, the cells were harvested with trypsin, washed once with PBS, and then fixed in 70% ethanol overnight at 4°C. Before flow cytometry analysis, cells were stained with 200 µg/ml Ribonuclease A and 50 µg/ml propidium iodide (Sigma) for 30 min at room temperature away from light. 1×10^4 cells per sample were analyzed using a FACSCalibur flow cytometer (BD Biosciences). Data were evaluated using Modfit software.

[9] = biological target: T3, human muscarinic receptor M2 (Homo sapiens, UniProt P08172); assay: Radioligand binding assay with [3H]NMS (saturation and competition), M2; conditions: mean ± SD
T3 construct: purchased Perkin Elmer Life and Analytical Sciences
T3 sequence (P08172 whole entry): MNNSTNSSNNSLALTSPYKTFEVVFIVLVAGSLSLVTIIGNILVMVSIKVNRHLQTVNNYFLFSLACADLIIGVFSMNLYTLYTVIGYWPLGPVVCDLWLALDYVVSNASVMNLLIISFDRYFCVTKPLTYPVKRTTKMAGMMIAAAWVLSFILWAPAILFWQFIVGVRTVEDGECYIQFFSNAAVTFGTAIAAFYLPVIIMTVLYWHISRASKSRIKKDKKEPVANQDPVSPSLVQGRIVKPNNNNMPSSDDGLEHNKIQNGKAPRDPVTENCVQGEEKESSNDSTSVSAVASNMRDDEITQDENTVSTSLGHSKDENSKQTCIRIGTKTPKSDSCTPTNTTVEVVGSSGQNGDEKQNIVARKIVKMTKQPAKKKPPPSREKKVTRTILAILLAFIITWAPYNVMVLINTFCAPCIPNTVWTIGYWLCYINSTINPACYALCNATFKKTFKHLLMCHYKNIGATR
Description: as §2, §1

A549 cells = assay: Cell viability assay (SRB), A549; assay type: cell-based; conditions: Homo sapiens, read-out: 50% growth-inhibitory concentration (GI50), A549, 72 h, 100 µM highest concentration tested
Description: as §3

BEP2D cells = assay: Cell viability assay (SRB), BEP2D; assay type: cell-based; conditions: Homo sapiens, read-out: 50% growth-inhibitory concentration (GI50), 72 h, 100 µM highest concentration tested
Description: as §3

H1299 cells [10] = assay: cells
Description: as §1

[11] = Homo sapiens, NCI-H1299, 72 h, read-out: cell viability
[12] = H1299, 72 h, SRB, antagonists 0.3–100 µM, no exogenous agonist
[13] = 2.4 nM [3H]NMS, n = 3, read-out: IC50 inhibiting [3H]NMS binding
[14] = Cheng-Prusoff, n = 3, read-out: Ki inhibiting [3H]NMS binding

CC(=O)OCC[N+](C)(C)C [ACh, Acetylcholine, reference compound]
effect of exogenous ACh alone on H1299 cell growth (H1299 cells [1]; ACh 1, 10 and 100 µM, 72 h): no significant effects on H1299 cell growth
viability at 1 µM (H1299 cells [1]; [11]): 102 ± 1.8%
viability at 10 µM (H1299 cells [1]; [11]): 105 ± 2.74%
viability at 100 µM (H1299 cells [1]; [11]): 99 ± 2.72%

CCN(CC)CC1CCCCN1CC(=O)N1c2ccccc2C(=O)Nc2cccnc21 (stereo not drawn) [AF-DX116]
effect on H1299 cell proliferation (H1299 cells [2]; [12]): inhibition on cell proliferation at the highest concentration tested

Br.CO[C@H]1CC=C2CCN3CCC4=C(CC(=O)OC4)[C@]23C1 [DhβE, Dihydro-β-erythroidine hydrobromide]
effect on H1299 cell proliferation (H1299 cells [2]; [12]): no obvious effects on cell proliferation

O[C@@](CO[C@H]1CN2CCC1CC2)(c1ccccc1)C1CCCC1 [R2-PHC]
inhibitory potency relative to darifenacin (H1299 cells [2]; H1299, 72 h, SRB): about 3.7 fold
effect on H1299 cell proliferation (H1299 cells [2]; [12]): significantly inhibited H1299 cell proliferation in a concentration-dependent manner

O[C@@](CO[C@H]1C[N+]2(C3CC3)CCC1CC2)(c1ccccc1)C1CCCC1 [R2HBJJ]
GI50 (H157 cells): 28500 nM
IC50 [3, 13]: 1.61 nM
Ki [3, 14]: 0.264 nM
IC50 [4, 13]: 1.47 nM
Ki [4, 14]: 0.106 nM
viability at 10 µM (H1299 cells [1]; Homo sapiens, NCI-H1299, 72 h, read-out: cell viability, R2HBJJ 10 µM, ACh 0 µM, H1299, 72 h): 54.1 ± 3.89%
viability at 20 µM (H1299 cells [1]; Homo sapiens, NCI-H1299, 72 h, read-out: cell viability, R2HBJJ 20 µM, ACh 0 µM, H1299, 72 h): 23.2 ± 2.14%
viability at 10 µM (H1299 cells [1]; Homo sapiens, NCI-H1299, read-out: cell viability, R2HBJJ 10 µM, ACh 1 µM added 1 h before, H1299, 72 h): 55 ± 6.79%
viability at 10 µM (H1299 cells [1]; Homo sapiens, NCI-H1299, read-out: cell viability, R2HBJJ 10 µM, ACh 10 µM added 1 h before, H1299, 72 h): 82.3 ± 5.82%
viability at 10 µM (H1299 cells [1]; Homo sapiens, NCI-H1299, read-out: cell viability, R2HBJJ 10 µM, ACh 100 µM added 1 h before, H1299, 72 h): 91.1 ± 3.65%
viability at 20 µM (H1299 cells [1]; Homo sapiens, NCI-H1299, read-out: cell viability, R2HBJJ 20 µM, ACh 1 µM added 1 h before, H1299, 72 h): 24.1 ± 1.94%
viability at 20 µM (H1299 cells [1]; Homo sapiens, NCI-H1299, read-out: cell viability, R2HBJJ 20 µM, ACh 10 µM added 1 h before, H1299, 72 h): 35.6 ± 4.48%
viability at 20 µM (H1299 cells [1]; Homo sapiens, NCI-H1299, read-out: cell viability, R2HBJJ 20 µM, ACh 100 µM added 1 h before, H1299, 72 h): 58.5 ± 2.83%
GI50 (H460 cells): 8800 nM
inhibitory potency relative to darifenacin (H1299 cells [2]; H1299, 72 h, SRB): about 3.7 fold
effect on H1299 cell proliferation (H1299 cells [2]; [12]): significantly inhibited H1299 cell proliferation in a concentration-dependent manner
GI50 (H1299 cells [2]; Homo sapiens, NCI-H1299, read-out: 50% growth-inhibitory concentration (GI50), H1299, 72 h, SRB): 8500 nM
levels of cyclin D1, CDK4 and CDK6 proteins ([5]; H1299, 20 µM, 3–60 h): dramatic down-regulation
levels of cyclin E and CDK2 ([5]; H1299, 20 µM, 3–60 h): remained basically unaltered
phosphorylation of Rb (particularly at Ser807/811) ([5]; H1299, 20 µM, 3–60 h): decreased time-dependently
lowest concentration at which decrease of Rb phosphorylated at Ser807/811 occurred ([5]; H1299, 48 h, 1.25–20 µM tested): 1.25 µM
IC50 [6]: 0.739 nM
Ki [6]: 0.0786 nM
IC50 [7]: 0.38 nM
Ki [7]: 0.0679 nM
percentage of G0/G1 phase (H1299 cells [8]; 48 h (Fig. 7B, concentration series), control 39.60%): 70.01%
percentage of G0/G1 phase (H1299 cells [8]; 72 h (Fig. 7A), control 40.35%): 76.60%
percentage of S phase (H1299 cells [8]; 72 h (Fig. 7A), control 46.14%): 15.93%
IC50 [9, 13]: 5.33 nM
Ki [9, 14]: 1.33 nM
GI50 (A549 cells): > 100000 nM
GI50 (BEP2D cells): > 100000 nM
viability at 8 µM (H1299 cells [10]; [11]): 83.5%
viability at 16 µM (H1299 cells [10]; [11]): 57.4%
effect on cell growth after M3 siRNA transfection (H1299 cells [10]; M3 siRNA treated H1299 cells, R2HBJJ 8 µM and 16 µM, 72 h): didn't further influence the cell growth

CN1[C@@H]2CC[C@H]1C[C@@H](OC(=O)C(CO)c1ccccc1)C2 (stereo partly drawn) [atropine]
effect on H1299 cell proliferation (H1299 cells [2]): no obvious effects on cell proliferation

NC(=O)C(c1ccccc1)(c1ccccc1)[C@@H]1CCN(CCc2ccc3c(c2)CCO3)C1 [darifenacin]
effect on H1299 cell proliferation (H1299 cells [2]; [12]): significantly inhibited H1299 cell proliferation in a concentration-dependent manner

CNC1(C)C2CCC(C2)C1(C)C (stereo not drawn) [mecamylamine]
effect on H1299 cell proliferation (H1299 cells [2]; [12]): no obvious effects on cell proliferation

CN1CCN(CC(=O)N2c3ccccc3C(=O)Nc3cccnc32)CC1 [pirenzepine]
effect on H1299 cell proliferation (H1299 cells [2]; [12]): no obvious effects on cell proliferation

α-bungarotoxin [α-bgt]
effect on H1299 cell proliferation (H1299 cells [2]): no obvious effects on cell proliferation
